Three molecules from US10488411B2, “Inflammasome activation in myelodysplastic syndromes” (H. LEE MOFFITT CANCER CENTER AND RESEARCH INSTITUTE, INC., priority 2015, dated 2019) can be followed below.

Data set [1] concerns β-catenin. Kind of data set: β-catenin confocal microscopy in U2AF1 S34F mutant TF-1 cells. The class given is cell-based. The note with it: treated for 24 hours prior to staining. The procedure:
Reagents and cells. U937 cells were grown in RPMI1640 supplemented with 10% FBS. TF-1 U2AF1 mutant and mock WT cells were cultured in RPMI1640 supplemented with 10% FBS and 2 ng/mL recombinant human GM-CSF. Cells were maintained at 37° C. under 5% CO2. Normal, heparinized BM aspirates were purchased from Lonza Walkersville or AllCells, LLC. […] J Clin Invest. 2013 123(11):4595-611). The IRAK4 inhibitor was acquired through material transfer agreement from Nimbus Discovery. NAC and DPI were purchased from Sigma-Aldrich. Active caspase-1 and caspase-3/7 were detected using FAM-FLICA® Caspase-1 and Caspase-3/7 activity kits, (ImmunoChemistry Technologies). NLRP1 antibodies were purchased from Santa Cruz Biotechnology, NLRP3 antibodies from Abcam, and β-catenin antibodies from BD Biosciences. Immunofluorescence confocal microscopy. MDS and normal donor BM-MNC and mouse BM cells were stained with 30× FAM-FLICA® Caspase-1 solution at a ratio of 1:30 for 2 hours at 37° C. Cells were washed and cytospins were generated using a 5 minutes centrifugation at 450 rpm. Slides were fixed at 37° C. for 10 minutes using BD Cytofix Fixation Buffer (BD Biosciences), and subsequently washed using PBS. […] Co-localization of a-caspase-1 with NLRP3 inflammasome complexes was assessed using a Leica TCS SP5 AOBS Laser Scanning Confocal microscope (Leica Microsystems). […]

The next data set concerns inflammasome. Kind of data set: ASC staining flow cytometry for inflammasome formation in SF3B1-K700E BM cells. The class given is cell-based, mouse. The note with it: 24 hours treatment. The procedure: ASC staining to detect inflammasome formation by flow cytometry. Staining was carried out as described ([…], et al. J Immunol. 2015 194(1):455-62). Briefly, cell pellets were resuspended in 1 mL of prewarmed BD Permeabilization Buffer III, and incubated on ice for 30 minutes. Cells were washed 2× with staining buffer. Following washing, cells were stained with rabbit-anti-ASC primary antibodies at a 1:1500 dilution and incubated for 90 minutes. Cells were washed, stained with secondary antibodies at a dilution of 1:1500, and incubated for 45 minutes. Cells were washed, and sample acquisitions were carried out using a BD LSR II flow cytometer and FACSDiva software.

In data set [2] the test system is ROS. Kind of data set: ROS detection by flow cytometry in SF3B1-K700E BM cells. It counts as cell-based, mouse. The note with it: NAC or DPI treatment. An excerpt: (§1) ROS detection. ROS were detected using CM-H2DCFDA and CellROX® Deep Red Reagent according to manufacturer's protocol (Life Technologies).
(In flow cytometry, cells or beads pass a laser one at a time.)

For data set [3], the system named is β-catenin. Kind of data set: β-catenin confocal microscopy in SF3B1-K700E BM cells. The class given is cell-based, mouse. The note with it: 24 hours treatment. On the procedure: (§2) Immunofluorescence confocal microscopy. MDS and normal donor BM-MNC and mouse BM cells were stained with 30× FAM-FLICA® Caspase-1 solution at a ratio of 1:30 for 2 hours at 37° C. Cells were washed and cytospins were generated using a 5 minutes centrifugation at 450 rpm. Slides were fixed at 37° C. for 10 minutes using BD Cytofix Fixation Buffer (BD Biosciences), and subsequently washed using PBS. Cells were permeabilized with 0.1% Triton X-100/2% BSA in PBS for 15 minutes at room temperature. After washing with PBS, cells were blocked using 2% BSA in PBS for 30 minutes at room temperature, and washed again. Cells were incubated with the appropriate primary antibody overnight (1:400 for NLRP3, 1:20 for β-catenin) at 4° C. The next day, cells were washed with PBS and incubated with the appropriate secondary antibodies (1:500) for 1 hour at room temperature. After washing, cells were covered with ProLong Gold Antifade Reagent with DAPI prior to the addition of a coverslip (Life Technologies). Co-localization of a-caspase-1 with NLRP3 inflammasome complexes was assessed using a Leica TCS SP5 AOBS Laser Scanning Confocal microscope (Leica Microsystems). Analysis of the inflammasome images was performed with Definiens Developer 2.0 (Definiens AG). The software was used to segment cells based on brightness and size thresholds, followed by a watershed segmentation algorithm. […]

Data set [4] relates to β-catenin. Kind of data set: β-catenin confocal microscopy in normal BM-MNC. It counts as cell-based, human. On the procedure:
as §2

The target of data set [5] is T1, NLRP3 inflammasome (Homo sapiens, UniProt Q96P20).
T1 construct: endogenous in cells; host or cells: U937 cells
T1 sequence (Q96P20 whole entry): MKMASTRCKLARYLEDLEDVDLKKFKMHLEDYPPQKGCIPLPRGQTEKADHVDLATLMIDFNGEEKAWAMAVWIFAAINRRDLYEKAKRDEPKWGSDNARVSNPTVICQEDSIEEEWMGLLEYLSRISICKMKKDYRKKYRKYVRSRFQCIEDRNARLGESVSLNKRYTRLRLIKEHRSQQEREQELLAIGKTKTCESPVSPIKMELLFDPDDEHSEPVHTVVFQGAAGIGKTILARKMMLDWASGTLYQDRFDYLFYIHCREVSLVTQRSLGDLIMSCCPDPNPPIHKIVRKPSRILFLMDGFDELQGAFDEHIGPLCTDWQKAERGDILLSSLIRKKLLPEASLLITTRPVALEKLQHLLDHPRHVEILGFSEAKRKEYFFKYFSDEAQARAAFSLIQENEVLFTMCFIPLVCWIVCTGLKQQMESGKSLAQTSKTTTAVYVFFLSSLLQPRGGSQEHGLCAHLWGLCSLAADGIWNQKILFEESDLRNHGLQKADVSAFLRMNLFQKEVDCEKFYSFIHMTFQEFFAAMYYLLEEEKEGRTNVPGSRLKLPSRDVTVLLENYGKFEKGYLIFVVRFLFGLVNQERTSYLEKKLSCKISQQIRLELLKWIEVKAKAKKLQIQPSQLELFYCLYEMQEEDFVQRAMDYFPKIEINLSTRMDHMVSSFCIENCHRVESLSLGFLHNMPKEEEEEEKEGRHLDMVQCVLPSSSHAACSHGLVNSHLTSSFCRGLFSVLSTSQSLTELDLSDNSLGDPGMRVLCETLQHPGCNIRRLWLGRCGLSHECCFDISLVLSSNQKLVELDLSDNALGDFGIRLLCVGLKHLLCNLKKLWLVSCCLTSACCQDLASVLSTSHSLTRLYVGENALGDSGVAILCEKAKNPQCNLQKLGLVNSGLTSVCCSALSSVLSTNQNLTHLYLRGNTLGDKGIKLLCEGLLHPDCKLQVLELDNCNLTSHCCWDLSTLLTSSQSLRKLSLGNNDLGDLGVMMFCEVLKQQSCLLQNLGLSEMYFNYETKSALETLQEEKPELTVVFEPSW
Kind of data set: Confocal microscopy of a-caspase-1/NLRP3 inflammasome formation in U937 cells. It counts as cell-based. The note with it: 5 μg/mL, 24 hours.

In data set [6] the test system is U937 cells. Kind of data set: S100A9 flow cytometry experiments in U937 cells (a-caspase-1/annexin-V). The class given is cell-based. On the procedure:
S100A9 flow cytometry experiments in U937 cells. Monocytic U937 cells were treated with the indicated concentrations of rhS100A9 for 24 hours, or with 5 μg/mL rhS100A9 for the indicated time points. Subsequently, cells were stained with 30× FAM-FLICA® Caspase-1 solution at a ratio of 1:30 for 2 hours at 37° C. Cells were washed, resuspended in 1× binding buffer, and stained with Annexin-V:PE at a dilution of 1:30 for 15 minutes at room temperature. 1× binding buffer was added to a final volume of 350 μL. Sample acquisitions were carried out using a BD FACSCalibur flow cytometer (BD Biosciences). Data were analyzed using FlowJo 9.7.5 software.

Data set [7] deals with pyroptosis-associated genes. Kind of data set: qPCR of pyroptosis-associated genes in normal BM-MNC treated with rhS100A9. It counts as cell-based, human. The note with it: normal BM-MNC (n=2), 1 μg/mL, 24 hours. The procedure:
Real-time quantitative PCR. RNA was isolated from BM-MNC using the RNeasy Mini Kit (Qiagen). cDNA was produced using the iScript cDNA Synthesis Kit (Bio-Rad). Sequences for primers can be found in Table 1. GAPDH mRNA was used for transcript normalization. cDNA was amplified using the iQ SYBR Green Supermix and the CFX96 Real-Time PCR Detection System (Bio-Rad). PCR conditions were as follows: 10 minutes at 95° C., followed by 40 cycles of amplification (15 seconds at 95° C. and 1 minute at 60° C.). Relative gene expression was calculated using the −2^ΔΔCt method.
For orientation: Real-time PCR tracks product formation cycle by cycle.

For data set [8], the system named is NLRP3 inflammasome. Kind of data set: Confocal microscopy of a-caspase-1/NLRP3 in normal BM-MNC treated with rhS100A9. It counts as cell-based, human. The note with it: 5 μg/mL, 24 hours. On the procedure: (§3) Immunofluorescence confocal microscopy. MDS and normal donor BM-MNC and mouse BM cells were stained with 30× FAM-FLICA® Caspase-1 solution at a ratio of 1:30 for 2 hours at 37° C. Cells were washed and cytospins were generated using a 5 minutes centrifugation at 450 rpm. Slides were fixed at 37° C. for 10 minutes using BD Cytofix Fixation Buffer (BD Biosciences), and subsequently washed using PBS. Cells were permeabilized with 0.1% Triton X-100/2% BSA in PBS for 15 minutes at room temperature. After washing with PBS, cells were blocked using 2% BSA in PBS for 30 minutes at room temperature, and washed again. Cells were incubated with the appropriate primary antibody overnight (1:400 for NLRP3, 1:20 for β-catenin) at 4° C. The next day, cells were washed with PBS and incubated with the appropriate secondary antibodies (1:500) for 1 hour at room temperature. After washing, cells were covered with ProLong Gold Antifade Reagent with DAPI prior to the addition of a coverslip (Life Technologies). Co-localization of a-caspase-1 with NLRP3 inflammasome complexes was assessed using a Leica TCS SP5 AOBS Laser Scanning Confocal microscope (Leica Microsystems). Analysis of the inflammasome images was performed with Definiens Developer 2.0 (Definiens AG). The software was used to segment cells based on brightness and size thresholds, followed by a watershed segmentation algorithm. Intensity values and Pearson's correlation coefficient were extracted from the segmented cells. For β-catenin image analysis, confocal images were imported into Definiens Tissue Studio v3.0, 64 Dual in .tif format. Cells were separated from background using the RGB thresholds. Nuclei were identified by setting thresholds in the DAPI channel. Typical cells averaged 60 microns. The red intensity (β-catenin) in the nucleus and cytoplasm was established by setting thresholds to low, medium and high in the red channel on a scale of 0-255 in the red channel.

The subject of data set [9] is U937 cells. Kind of data set: Pore formation, ethidium bromide uptake in U937 cells. The class given is cell-based. The note with it: U937, 5 μg/mL rhS100A9, 12.5 μg/mL ethidium bromide.
Data set [10] deals with NLRP3 inflammasome. Kind of data set: Confocal microscopy of a-caspase-1/NLRP3 in WT mouse BM cells treated with rhS100A9. The class given is cell-based. The note with it: 5 μg/mL, 24 hours. On the procedure:
as §3

Data set [11] has as its system ROS. Kind of data set: ROS detection by flow cytometry in U937 cells. It counts as cell-based. The note with it: U937, 5 μg/mL, 24 hours, compared to untreated cells.
Description: as §1

Data set [12] concerns U937 cells. Kind of data set: Comet assay of DNA damage in U937 cells. The note with it: U937, 5 μg/mL, 24 hours, compared to untreated cells. It counts as cell-based. The procedure: Comet assays. Monocytic U937 cells were treated with 5 μg/mL rhS100A9 for 24 hr. DNA damage was measured by single cell gel electrophoresis using alkaline CometAssay® according to manufacturer's protocol (Trevigen Inc.).

Data set [13] deals with β-catenin. Kind of data set: β-catenin confocal microscopy in U937 cells. The class given is cell-based. The note with it: 5 μg/mL, 24 hours, compared to untreated cells.
Setting [14] is: increasing concentrations, 24 hours.

Take `CC(=O)N[C@@H](CS)C(=O)O` [NAC, N-acetylcysteine]: the “β-catenin activation in U2AF1-S34F mutant cells” value in the data set on β-catenin [1] is on record as “effectively reduced”. In addition, the “inflammasome formation (ASC) in SF3B1-K700E mutant-expressing BM cells” value in the data set on inflammasome was “significantly reduced”. Moreover, in the data set with ROS [2], the “ROS MFI in SF3B1-K700E BM cells” value is “extinguished below the level of WT controls” and the “mean percentage of ROS+ cells in SF3B1-K700E BM cells” value is “extinguished below the level of WT controls”. The “percentage of cells with elevated levels of nuclear β-catenin in SF3B1-K700E BM cells” value with β-catenin [3] is listed as “significantly reduced”. The “S100A9-triggered nuclear translocation of β-catenin in normal BM-MNC” value in the data set with β-catenin [4] (S100A9 treatment of normal BM-MNC) is on record as “abolished”.
Take `c1ccc2c(c1)[I+]c1ccccc1-2` [DPI]: the “β-catenin activation in U2AF1-S34F mutant cells” value in the data set on β-catenin [1] was “effectively reduced”. The “inflammasome formation (ASC) in SF3B1-K700E mutant-expressing BM cells” value in the data set on inflammasome was “significantly reduced”. Also, in the data set with ROS [2], the “ROS MFI in SF3B1-K700E BM cells” value is “extinguished below the level of WT controls” and the “mean percentage of ROS+ cells in SF3B1-K700E BM cells” value was “extinguished below the level of WT controls”. In addition, the “percentage of cells with elevated levels of nuclear β-catenin in SF3B1-K700E BM cells” value in the data set on β-catenin [3] is recorded as “significantly reduced”.
For the molecule “rhS100A9: recombinant human S100A9, alarmin / DAMP protein, TLR4 and CD33 ligand”, the “levels of NLRP3 inflammasome complexes in U937” value in the data set with NLRP3 inflammasome [5] is “markedly increased”. Moreover, in the data set with U937 cells [6] (5 μg/mL), the “activation of caspase-1 in U937 over time” value is given as “time-dependent increase”. In addition, in the data set on U937 cells [6] (setting [14]), the “a-caspase-1 MFI in U937” value is on record as “corresponding increase”, the “fraction of pyroptotic cells in U937” value is “concentration-dependent increase” and the “percentage of a-caspase-1+ cells in U937” value is “corresponding increase”. Moreover, the “expression of pyroptosis-associated genes” value in data set [7] is listed as “significantly up-regulated”. In the data set with NLRP3 inflammasome [8], the “NLRP3 levels, fold induction” value is 47.1 fold; the “a-caspase-1 levels, fold induction” value was found to be 2.5 fold; the “formation of NLRP3 inflammasomes, fold induction” value is on record as 2.9 fold. Further, the “uptake of ethidium bromide” value in the data set with U937 cells [9] was “rapid and substantial uptake”. In addition, in the data set with NLRP3 inflammasome [10], the inflammasome complexes entry is given as “marked induction”. Further, in the data set with NLRP3 inflammasome [10] (versus controls), the “MFI of NLRP3” value was “significantly increased” and the “MFI of a-caspase-1” value is on record as “significantly increased”. Besides, in the data set on ROS [11], the “fold increase in mean percentage of ROS-positive cells” value stood at 2.9 fold. Besides, in the data set on U937 cells [12], the “fold increase in DNA damage” value amounted to 4.1 fold. The “levels of nuclear (activated) β-catenin in U937” value with β-catenin [13] was “marked increases”. Moreover, in the data set with β-catenin [4] (5 μg/mL, 24 hours, compared to controls), the “levels of nuclear β-catenin in normal BM-MNC” value is given as “elevated levels”.
